Measured values from paper PMC2678990, “Stilbene glycosides are natural product inhibitors of FGF-2-induced angiogenesis” (BMC Cell Biology, 2009).

Tests used:
phospho-ERK1/2 in BAEC = assay: Western blot of ERK1/2 phosphorylation; type: cell-based, bovine; conditions: BAEC; FGF-2 25 ng/ml; Western blot
Protocol: Figure 9 (A) Western blots of p-ERK-1 and -2 were performed on BAEC treated with compound 1 as described below. (B) The bar charts show relative protein expression compared to the control given an arbitrary value of 1.0. All experiments were performed at least twice and a representative example is shown. Lane 1 control, lane 2 FGF-2 (25 ng/ml), lane 3 compound 1 ([…]), lane 4 compound 1 (14.3 μM) + FGF-2, lane 5 compound 1 (28.6 μM), lane 6 compound 1 (28.6 μM) + FGF-2.
The method is described in detail elsewhere. In brief, cells were lysed in RIPA buffer, protein concentration determined using the Biorad assay, and approximately 20 μg aliquots separated by 12% SDS-PAGE, electroblotted onto nitrocellulose filters (Hoefer, San Francisco, Ca, USA), blocked overnight with 1% BSA in TBS-Tween and incubated for 4 h at RT with characterised antibodies to phosphor-ERK1/2 (AutogenBioclear, mouse monoclonal, 1:1000). α-Actin (Sigma, UK; 1:1000) was used as a loading control. Filters were washed in TBS-Tween and stained with antibodies to peroxidase-conjugated secondary antibody. Proteins were detected with the ECL system (Amersham, UK). Protein expression was estimated spectrophotometrically from band intensity. Results are semi-quantitative and given a numerical value compared to the weakest observed band assigned an arbitrary value of 1.0. […]

HDMEC [1] = assay: Toxicity: MTT and active caspase-3 assays; type: cell-based, human
Protocol: Stilbene glycoside toxicity was determined using the MTT and active caspase-3 assays. BAECs or HDMECs (7.5 × 10^3) were seeded in a 96 well plate and incubated for 4 h to allow cell adhesion. The test compound or staurosporine (1 μM), an inducer of active caspase-3 and therefore of apoptosis was added to the wells. Control cells were treated with PBS and the plate was incubated at room temperature for 72 hours. MTT reagent (10 μl) was added followed by incubation at room temperature for 2–4 h. When a purple precipitate was visible, detergent reagent (100 μl) was added to the plates and incubated at room temperature for 2 h in the dark. Absorbance was measured at 570 nm using a microplate reader.
In the apoptosis assay, HDMECs or BAEC (4 × 10^4/ml) in complete medium were added to the chambers slide and allowed to adhere for 24 h. The test compound (X μM) or staurosporine (1 μM) were added to all wells except control (PBS) and incubated for 24 hours. Wells treated with staurosporine were immediately washed (PBS) and fixed (4% paraformaldehyde) when cell morphology became round (2–4 h). After washing and fixing, cells were permeablized (0.1% Triton X-100; 10 min), washed (× 5~5 min each), air dried and blocked with 1% BSA in 1:50 TBS-Tween for 1 h at room temperature. Cells were incubated with goat anti-active caspase-3 (R&D system, UK; 1% BSA in TBS-Tween) for 1 h. […]

BAEC [2] = assay: VEGF-induced proliferation; type: cell-based, bovine; conditions: 72 h, NS = inhibition less than 50%
Protocol: (§1) Cells were seeded in triplicate at a concentration of 6.0 × 10^5/ml, in 2 ml of complete medium in 6-well plates. […] Growth factors, FGF-2 (25 ng/ml), EGF (75 ng/ml) and VEGF (10 ng/ml) and test compounds at different concentration were added and cells incubated for a further 72 h. Control wells were treated with 5 μl DMSO. Concentration ranges of test compounds and pre-incubation times were based on pilot studies. After 72 h, cells were washed in PBS, detached in 0.05%w/v trypsin in PBS, and counted on a Coulter counter (Coulter Electronics, Hialeah, FL) set to a threshold of 30 μm. Experiments were performed in triplicate and repeated at least twice.

BAEC [3] = assay: FGF-2 invasion in Matrigel; type: cell-based, bovine; conditions: Bos taurus, FGF-2 25 ng/ml
Protocol: The effect of the test compounds on cell invasion was investigated using a Transwell Boyden chamber system coated with reconstituted growth factor-depleted Matrigel. […] Representative photomicrographs for the effect of compound 1 are shown (Figure 7B).
Figure 7 The effect of compounds 1 (AI) and 2 (AII) on BAEC invasion into a Matrigel layer was studied using the chemoinvasion assay described below. Cells (1.7 × 10^4) were added to the Matrigel coated upper Boyden chamber and the compounds with or without FGF-2 added to the lower chamber. Cell invasion was measured after 24 h and assessed as described below. […] Results are the mean of three experiments. (B) Representative photomicrographs are shown for the effect of compound 1 on BAEC (original magnification × 20).
The procedure described above was repeated and wells having a uniform network of tubes were used to assess invasion into a second layer of Matrigel. Matrigel (100 μl), with and without the test compounds was added to the cells and allowed to polymerise (1 h at 37°C). FCS (15%) was added and the cells incubated for 24–72 h when tube growth into the upper layer was measured as described above.

[4] = system: human dermal microvascular endothelial cells (HDMEC); assay: Proliferation without growth factors (15% FBS); type: cell-based
Protocol: as §1, with “Growth factors, FGF-2 (25 ng/ml), EGF (75 ng/ml) and VEGF (10 ng/ml) and test compounds at different concentration were added and cells incubated for a further 72 h.” left out

[5] = system: bovine aortic endothelial cells (BAEC); assay: Proliferation without growth factors (15% FBS); type: cell-based
Protocol: as §1, with “Growth factors, FGF-2 (25 ng/ml), EGF (75 ng/ml) and VEGF (10 ng/ml) and test compounds at different concentration were added and cells incubated for a further 72 h.” left out

HDMEC [6] = assay: FGF-2 invasion in Matrigel; type: cell-based, human; conditions: Homo sapiens, FGF-2 25 ng/ml
BAEC [7] = assay: FGF-2-induced chemotaxis, Boyden chamber assay; type: cell-based, bovine; conditions: Bos taurus, 6 h, FGF-2 25 ng/ml
Protocol: The effect of compounds 1 and 2 on cell migration was examined in vitro using a modified Boyden chamber system with 8.0 μm pore polycarbonate filter inserts (TSL, UK). The filter was coated overnight with 0.1%w/v gelatine, and air-dried. Cells (1 × 10^5) were placed in the upper part of the filter and test compounds at different concentrations with and without growth factors were added to the lower part in SPM. Cells were incubated at 37°C for 6 h and the filter removed and the upper side containing non migrated cells wiped and rinsed. The filters were fixed (4% paraformaldehyde), and stained (Geimsa) and cell migration in duplicate wells was determined by counting cell numbers on the lower surface. Experiments were performed in triplicate and at least two times.

IC50 (BAEC [3]): 11.1 ± 0.28 µM
IC50 (HDMEC [6]): 5.8 ± 0.18 µM
IC50 (BAEC [7]): 30.1 ± 0.85 µM
Structure (SMILES): COc1cc(C=Cc2ccc(O)cc2)cc(OC2OC(COC3OC(C)C(O)C(O)C3O)C(O)C(O)C2OC2OC(C)C(O)C(O)C2O)c1 (centres unmarked) [Compound 1]
Inhibition of FGF-2-induced ERK1/2 phosphorylation (phospho-ERK1/2 in BAEC): inhibited
Cytotoxic effect (HDMEC [1]): no significant cytotoxic effect
VEGF-induced proliferation, IC50 (BAEC [2]): no significant inhibitory effect
IC50 (BAEC [2]; Bos taurus): > 71.5 µM
Effect on growth in the absence of growth factors ([4]; 1.4–71.5 μM): no significant effect
IC50 ([4]; Homo sapiens, Endothelial cell, NS = overall inhibition less than 50%): > 71.5 µM
Effect on growth in the absence of growth factors ([5]; 1.4–71.5 μM): no significant effect
IC50 ([5]; Bos taurus, NS = overall inhibition less than 50%): > 71.5 µM
